Laboratory results reported in PMC10226132, “First-in-Class Selective Inhibitors of the Lysine Acetyltransferase KAT8” (Journal of Medicinal Chemistry, 2023).
Where two headings read alike, the source gives them in different places.

What was measured:
Format in all cases: biochemical
KAT8 = molecular target: T1, KAT8 (Homo sapiens, UniProt Q9H7Z6); assay: Radioactive KAT8 inhibition assay
T1 construct: using the previously purified KAT8 (173–458, 5 nM); 6xHis tag with TEV protease cleavage site (N, cleaved yes); made in house; host or cells: E. coli BL21(DE3)
T1 sequence (Q9H7Z6 173-458): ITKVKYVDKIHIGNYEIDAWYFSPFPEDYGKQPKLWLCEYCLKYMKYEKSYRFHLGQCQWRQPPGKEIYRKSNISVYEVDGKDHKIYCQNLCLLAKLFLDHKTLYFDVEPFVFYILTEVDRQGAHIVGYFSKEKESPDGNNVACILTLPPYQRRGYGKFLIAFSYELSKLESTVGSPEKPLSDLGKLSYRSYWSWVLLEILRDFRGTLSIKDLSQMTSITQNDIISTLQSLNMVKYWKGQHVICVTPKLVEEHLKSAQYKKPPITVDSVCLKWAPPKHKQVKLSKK
Experimental: Purified KAT8 was incubated with the relevant inhibitor (1% DMSO final) in a 2-fold serial dilution starting at 200 μM for 20 min at rt. Then, [^3H]Ac-CoA and biotinylated peptide were added to a total assay volume of 50 μL and the reaction mixture was incubated at rt for 4 h. The reaction was stopped, and the mixture was transferred to a 96-well streptavidin scintillant coated FlashPlate (Perkin Elmer) and incubated for 60 min at rt. The FlashPlate was washed with 0.1% Tween-20, and the liquid scintillation counting (MicroBeta Microplate Counter, Perkin Elmer) was employed to measure the radioactive signal. Experiments were performed in biological triplicates. Signal reduction compared to control was plotted (as inhibition percentage) as a function of compound concentration and fitted by nonlinear regression (GraphPad Prism 8.0) finally yielding the IC50 values.

KAT2B = molecular target: T2, KAT2B (Homo sapiens, UniProt Q92831); assay: HotSpot KAT assay, KAT2B; details: enzyme 25 nM; NI = no inhibition at 200 μM; mean ± SD of three independent experiments
T2 construct: KAT2B (aa 492–658, 25 nM); purchased Reaction Biology Corporation
T2 sequence (Q92831 492-658): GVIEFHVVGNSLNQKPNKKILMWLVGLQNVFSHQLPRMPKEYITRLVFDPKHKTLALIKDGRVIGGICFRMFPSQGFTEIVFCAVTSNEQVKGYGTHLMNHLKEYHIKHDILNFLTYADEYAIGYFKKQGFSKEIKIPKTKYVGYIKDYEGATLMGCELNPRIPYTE
Experimental: The effects of the compounds on other KATs were determined using the HotSpot KAT assay (Reaction Biology Corporation, Malvern, PA, USA) according to the supplier’s procedure. The recombinant catalytic domains of human KAT2A (aa 323–837, 15 nM), KAT2B (aa 492–658, 25 nM), KAT3B (aa 1284–1672, 1 nM), KAT6A (aa 488–778, 10 nM), KAT6B (aa 657–1069, 10 nM), and full length human KAT5 (25 nM) and KAT7 (25 nM) were used. Each enzyme was incubated with the relevant histone peptide [H3 peptide for KAT2A, KAT2B, KAT3B, KAT6A, and KAT7 (2.5–5 μM, depending on the KAT isoform); H2A peptide for KAT5 (1.25 μM); H4 peptide for KAT6B (2.5 μM)] as a substrate and radio-isotope-labeled [^3H]Acetyl-CoA (0.2–1.5 μM, depending on the KAT isoform) as an acetyl donor in the assay buffer [50 mM Tris–HCl (pH 8.0), 50 mM NaCl, 0.1 mM EDTA, 1 mM DTT, 0.1 mM PMSF, 1% DMSO] for 1 h at 30 °C in the presence or absence of various compounds (1% DMSO final) titrated in a 2-fold serial dilution starting at 200 μM. Histone peptide acetylation was assessed by liquid scintillation counting using a Tri-Carb 2800TR Liquid Scintillation Analyzer (Perkin Elmer). Experiments were performed in biological triplicates. Signal reduction compared to control was plotted (as inhibition percentage) as a function of compound concentration. In cases in which an IC50 was calculated, the values were fitted by nonlinear regression (GraphPad Prism 8.0).

KAT3B = molecular target: T3, KAT3B (Homo sapiens, UniProt Q09472); assay: HotSpot KAT assay, KAT3B; details: read-out: IC50 KAT3B (1 nM); enzyme 1 nM; NI = no inhibition at 200 μM; mean ± SD of three independent experiments
T3 construct: KAT3B (aa 1284–1672, 1 nM); purchased Reaction Biology Corporation
T3 sequence (Q09472 1284-1672): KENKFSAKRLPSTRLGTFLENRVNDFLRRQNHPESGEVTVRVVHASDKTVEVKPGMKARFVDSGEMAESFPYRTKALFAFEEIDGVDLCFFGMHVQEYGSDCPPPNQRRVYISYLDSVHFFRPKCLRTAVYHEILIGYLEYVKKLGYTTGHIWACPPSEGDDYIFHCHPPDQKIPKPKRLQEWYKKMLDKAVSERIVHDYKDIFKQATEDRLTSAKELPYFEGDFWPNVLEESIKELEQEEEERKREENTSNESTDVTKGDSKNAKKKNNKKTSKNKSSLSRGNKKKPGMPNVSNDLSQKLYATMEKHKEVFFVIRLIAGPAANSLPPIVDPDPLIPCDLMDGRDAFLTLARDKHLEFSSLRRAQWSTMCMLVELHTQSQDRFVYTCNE
Experimental: The effects of the compounds on other KATs were determined using the HotSpot KAT assay (Reaction Biology Corporation, Malvern, PA, USA) according to the supplier’s procedure. […] Histone peptide acetylation was assessed by liquid scintillation counting using a Tri-Carb 2800TR Liquid Scintillation Analyzer (Perkin Elmer). Experiments were performed in biological triplicates. Signal reduction compared to control was plotted (as inhibition percentage) as a function of compound concentration. In cases in which an IC50 was calculated, the values were fitted by nonlinear regression (GraphPad Prism 8.0).

[1] = read-out: IC50 KAT8 (5 nM), enzyme 5 nM, 2-fold serial dilution from 200 μM, NI = no inhibition at 200 μM, mean ± SD of three independent experiments

IC50 (KAT8; [1]) [µM] | SMILES | further results
13.9 ± 0.9 | CC(C)C1=NN(c2ccc(C(=O)O)cc2)C(=O)/C1=C\c1ccc[nH]1 [Compound 33, (Z)-4-(4-((1H-Pyrrol-2-yl)methylene)-3-isopropyl-5-oxo-4,5-dihydro-1H-pyrazol-1-yl)benzoic Acid] | IC50 (KAT2B): > 200 µM; IC50 (KAT3B): > 200 µM
33 ± 2 | CC1=NN(c2ccc(C(=O)O)cc2)C(=O)/C1=C\c1cc[nH]c1 [Compound 23, (Z)-4-(4-((1H-Pyrrol-3-yl)methylene)-3-methyl-5-oxo-4,5-dihydro-1H-pyrazol-1-yl)benzoic Acid] | IC50 (KAT2B): > 200 µM; IC50 (KAT3B): > 200 µM
> 200 | CC1=NN(c2ccccc2)C(=O)/C1=C\c1cc(C(=O)c2ccccc2[N+](=O)[O-])c[nH]1 [Compound 17, (Z)-5-Methyl-4-((4-(2-nitrobenzoyl)-1H-pyrrol-2-yl)methylene)-2-phenyl-2,4-dihydro-3H-pyrazol-3-one] | –
52.2 ± 3.2 | CC1=NN(c2ccc(C(=O)NCCO)cc2)C(=O)/C1=C\c1ccc[nH]1 [Compound 40, (Z)-4-(4-((1H-Pyrrol-2-yl)methylene)-3-methyl-5-oxo-4,5-dihydro-1H-pyrazol-1-yl)-N-(2-hydroxyethyl)benzamide] | –
> 150 | CC1=NN(c2ccc(C(=O)O)cc2)C(=O)/C1=C\c1cc(C(=O)c2cccc([N+](=O)[O-])c2)c[nH]1 [Compound 3, (Z)-4-(3-Methyl-4-((4-(3-nitrobenzoyl)-1H-pyrrol-2-yl)methylene)-5-oxo-4,5-dihydro-1H-pyrazol-1-yl)benzoic Acid] | –
> 150 | CC1=NN(c2ccc(C(=O)O)cc2)C(=O)/C1=C\c1cc(C(=O)c2ccccc2F)c[nH]1 [Compound 8, (Z)-4-(4-((4-(2-Fluorobenzoyl)-1H-pyrrol-2-yl)methylene)-3-methyl-5-oxo-4,5-dihydro-1H-pyrazol-1-yl)benzoic Acid] | –
> 200 | CC1=NN(c2ccccc2)C(=O)/C1=C\c1cc(C(=O)c2ccccc2)c[nH]1 [Compound 16, (Z)-4-((4-Benzoyl-1H-pyrrol-2-yl)methylene)-5-methyl-2-phenyl-2,4-dihydro-3H-pyrazol-3-one] | –
> 150 | CC1=NN(c2ccc(C(=O)O)cc2)C(=O)/C1=C\c1cc(C(=O)c2cccc(Cl)c2)c[nH]1 [Compound 6, (Z)-4-(4-((4-(3-Chlorobenzoyl)-1H-pyrrol-2-yl)methylene)-3-methyl-5-oxo-4,5-dihydro-1H-pyrazol-1-yl)benzoic Acid] | –
> 200 | COc1cccc(C(=O)c2c[nH]c(/C=C3\C(=O)N(c4ccc(C(=O)O)cc4)N=C3C)c2)c1 [Compound 11, (Z)-4-(4-((4-(3-Methoxybenzoyl)-1H-pyrrol-2-yl)methylene)-3-methyl-5-oxo-4,5-dihydro-1H-pyrazol-1-yl)benzoic Acid] | –
> 200 | CC1=NN(c2ccc(C(=O)O)cc2)C(=O)/C1=C\c1cc(C(=O)c2ccc([N+](=O)[O-])cc2)c[nH]1 [Compound 4, (Z)-4-(3-Methyl-4-((4-(4-nitrobenzoyl)-1H-pyrrol-2-yl)methylene)-5-oxo-4,5-dihydro-1H-pyrazol-1-yl)benzoic Acid] | –
> 200 | CC1=NN(c2ccc(C(=O)O)cc2)C(=O)/C1=C\c1cc(C(=O)c2cccc(C)c2)c[nH]1 [Compound 14, (Z)-4-(3-Methyl-4-((4-(3-methylbenzoyl)-1H-pyrrol-2-yl)4ethylene)-5-oxo-4,5-dihydro-1H-pyrazol-1-yl)benzoic Acid] | –

Continued, compound first:

SMILES | IC50 (KAT8; [1]) [µM] | further results
CC1=NN(c2ccc(S(N)(=O)=O)cc2)C(=O)/C1=C\c1ccc[nH]1 [Compound 43, (Z)-4-(4-((1H-Pyrrol-2-yl)methylene)-3-methyl-5-oxo-4,5-dihydro-1H-pyrazol-1-yl)benzenesulfonamide] | 59.4 ± 3.7 | –
CC1=NN(c2ccc(C(=O)O)cc2)C(=O)C1 [Compound 18] | > 200 | –
CC1=NN(c2ccc(C(=O)O)cc2)C(=O)/C1=C\c1c[nH]cn1 [Compound 25, (Z)-4-(4-((1H-Imidazol-4-yl)methylene)-3-methyl-5-oxo-4,5-dihydro-1H-pyrazol-1-yl)benzoic Acid] | 31.8 ± 2.1 | IC50 (KAT2B): > 200 µM; IC50 (KAT3B): 29.2 ± 1.7 µM
CC1=NN(c2ccc(C(=O)O)cc2)C(=O)/C1=C\c1cc(C(=O)c2cccc(F)c2)c[nH]1 [Compound 9, (Z)-4-(4-((4-(3-Fluorobenzoyl)-1H-pyrrol-2-yl)methylene)-3-methyl-5-oxo-4,5-dihydro-1H-pyrazol-1-yl)benzoic Acid] | > 200 | –
CC(C)C1=NN(c2ccc(C(=O)O)cc2)C(=O)/C1=C\c1cc(C(=O)c2ccccc2[N+](=O)[O-])c[nH]1 [Compound 15, (Z)-4-(3-Isopropyl-4-((4-(2-nitrobenzoyl)-1H-pyrrol-2-yl)methylene)-5-oxo-4,5-dihydro-1H-pyrazol-1-yl)benzoic Acid] | – | IC50 (KAT8): > 150 µM; IC50 (KAT2B): > 200 µM
CC1=NN(c2ccc(S(=O)(=O)O)cc2)C(=O)/C1=C\c1ccc[nH]1 [Compound 42, (Z)-4-(4-((1H-Pyrrol-2-yl)methylene)-3-methyl-5-oxo-4,5-dihydro-1H-pyrazol-1-yl)benzenesulfonic Acid] | 54.7 ± 4 | –
COc1ccccc1C(=O)c1c[nH]c(/C=C2\C(=O)N(c3ccc(C(=O)O)cc3)N=C2C)c1 [Compound 10, (Z)-4-(4-((4-(2-Methoxybenzoyl)-1H-pyrrol-2-yl)methylene)-3-methyl-5-oxo-4,5-dihydro-1H-pyrazol-1-yl)benzoic Acid] | – | IC50 (KAT8): > 150 µM
CC1=NN(c2ccc(C(=O)NCCCN3CCCC3)cc2)C(=O)/C1=C\c1ccc[nH]1 [Compound 41, (Z)-4-(4-((1H-Pyrrol-2-yl)methylene)-3-methyl-5-oxo-4,5-dihydro-1H-pyrazol-1-yl)-N-(3-(pyrrolidin-1-yl)propyl)benzamide] | > 200 | –
CC1=NN(c2ccc(C(=O)O)cc2)C(=O)/C1=C\c1cc(C(=O)c2ccc(Cl)cc2)c[nH]1 [Compound 7, (Z)-4-(4-((4-(4-Chlorobenzoyl)-1H-pyrrol-2-yl)methylene)-3-methyl-5-oxo-4,5-dihydro-1H-pyrazol-1-yl)benzoic Acid] | > 200 | –
CC1=NN(c2ccc(C(=O)O)cc2)C(=O)/C1=C\c1cc(C(=O)c2ccccc2O)c[nH]1 [Compound 12, (Z)-4-(4-((4-(2-Hydroxybenzoyl)-1H-pyrrol-2-yl)methylene)-3-methyl-5-oxo-4,5-dihydro-1H-pyrazol-1-yl)benzoic Acid] | > 200 | –
